Source: publication PMC9967653, “Anticancer Activities of Novel Nicotinamide Phosphoribosyltransferase Inhibitors in Hematological Malignancies” (Molecules, 2023)
pIC50: −log10 of the molar value. Where two headings read alike, the source gives them in different places.

Tests used:
[1] = system: Namalwa cells (Burkitt lymphoma); assay: Cell death after 96 h of treatment (ANXN/7AAD flow cytometry), Namalwa; assay type: cell-based; conditions: Homo sapiens
Experimental: (§1) Four hematological cell lines (ML2—acute myeloid leukemia; Jurkat—acute lymphoblastic leukemia; Namalwa—Burkitt lymphoma; and RPMI8226—multiple myeloma) were purchased from DSMZ (German Collection of Microorganisms and Cell Cultures, Braunschweig, Germany) or ATCC.
(§2) All cells were cultured in RPMI medium (Invitrogen AG, 61870-01) supplemented with 10% heat inactivated fetal calf serum (Amimed, 2-01F30-I) and 1% penicillin/streptomycin at 37 °C (Amimed, 4-01F00-H) in a humidified atmosphere of 95% air and 5% CO2.
(§3) To determine the cell death induced by NAMPT inhibitors, malignant cells were stained with ANNEXIN-V (ANXN, eBioscience, BMS306FI/300) and 7-aminoactinomycin D (7AAD, Immunotech, A07704) as described by the manufacturer and analyzed using flow cytometry. Dead cells were identified as ANXN+7AAD+ /7AAD+ and early apoptotic cells as ANXN+ 7AAD-. Specific cell death induced by inhibitors was calculated using the following formula: percent of cell death induced by compound = [(S – C) / (100 – C)] × 100; where S = treated sample cell death and C = untreated sample cell death.

purified NAMPT = biological target: T1, purified NAMPT (Homo sapiens, UniProt P43490); assay: NAMPT enzymatic activity assay (colorimetric kit); assay type: biochemical; conditions: 1 µM final concentration
T1 construct: purchased Abcam ab221819
T1 sequence (P43490 whole entry): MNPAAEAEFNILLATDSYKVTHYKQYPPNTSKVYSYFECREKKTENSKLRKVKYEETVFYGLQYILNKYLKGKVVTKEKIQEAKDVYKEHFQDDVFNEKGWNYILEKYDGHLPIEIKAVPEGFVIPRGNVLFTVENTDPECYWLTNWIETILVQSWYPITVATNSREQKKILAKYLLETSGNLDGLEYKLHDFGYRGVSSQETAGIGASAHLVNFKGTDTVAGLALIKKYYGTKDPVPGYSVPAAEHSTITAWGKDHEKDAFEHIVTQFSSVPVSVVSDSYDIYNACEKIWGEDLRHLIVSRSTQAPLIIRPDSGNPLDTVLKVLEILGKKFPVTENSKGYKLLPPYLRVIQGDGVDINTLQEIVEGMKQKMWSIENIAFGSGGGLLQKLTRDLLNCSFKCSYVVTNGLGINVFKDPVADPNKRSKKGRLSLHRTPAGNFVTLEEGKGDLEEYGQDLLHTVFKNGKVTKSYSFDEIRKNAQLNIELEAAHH
Experimental: The ability of FK866 (APO866) analogues to inhibit NAMPT activity was assessed with an NAMPT Activity Assay Kit (Colorimetric) (Abcam, ab221819, Cambridge, UK) according to the manufacturer’s instructions. Briefly, NAMPT inhibitors were dissolved in DMSO to a final concentration of 1 µM and distributed in a 96-well plate in duplicate. Then, a reaction mix containing assay buffer, ATP, NMNAT1, NAM, PRPP and ddH2O was added and the plate was incubated at 30 °C for 60 min. After, to measure the generated NAD^+, a mix of WST-1, ADH, diaphorase and ethanol was added to the wells. The absorbance was measured in kinetic mode at 450 nm on a microplate reader for 45 min at 30 °C.
Figure 2 New compounds with a potent NAMPT inhibitory activity. Compounds were added in 1 µM final concentration to purified NAMPT and incubated with co-substrates, resulting in a reduction of tetrazolium salt (WST-1) to colorful formazan. The amount of formed dye is directly proportional to the enzyme activity. The absorbance of the dye was detected at OD 450 nm.

[2] = system: Namalwa tumors (human Burkitt lymphoma cell line); assay: Mouse xenograft model of human Burkitt lymphoma; assay type: in vivo; conditions: for Tumor growth: 10 mg/kg I.P. twice a day for 4 days, weekly over 3 weeks, JJ08: 5 days after administration
Experimental: The new NAMPT inhibitors (JJ08, FEI191 and FEI199 (in comparison with lead compound, FK866 (APO866))) were evaluated in vivo in a mouse xenograft model of human Burkitt lymphoma. […] non-leaky C.B.-17 SCID mice (8 to 10 weeks old; Iffa Credo, L’Arbresle, France) were housed in micro-isolator cages in a specific pathogen-free room in the animal facility at the University Hospital of Lausanne. Firstly, the mice spent one week alone to acclimatize to their new environment. All animals were handled according to the institutional regulations and with the prior approval of the animal ethic committee of the University of Lausanne. Manipulations were performed in sterile conditions under a laminar flow hood. Firstly, Namalwa cells (1 × 10^7) were injected subcutaneously into the mouse flank side. Once the tumors became palpable and reached a size between 100 and 150 mm^3, mice (n = five/ group) were randomized into control and treated groups. The drugs were administered intraperitoneally (10 mg/kg body weight) in 200 µL 0.9% saline twice a day for 4 days, repeated weekly over 3 weeks. The control group was treated only with 200 µL 0.9% saline. Every day, the animals were monitored for any signs of illness, and in cases where the tumor size reached a diameter of 15 mm, they were sacrificed immediately.
Tumor size (A) and survival rate (B) of mice xenografted with Namalwa cells treated or untreated with NAMPT inhibitors were monitored for 21 days. Twenty-five 6-to-8-week-old C.B.-17 SCID mice were transplanted subcutaneously with Namalwa cells (10^7). Once tumors reached a volume of approximately 100–150 mm^3, at day 14, mice were randomized into five groups of animals (n = 5) with similar body weight. Control groups received vehicle (pink line) and JJ08 (10 mg/kg; light blue line), FEI191 (10 mg/kg; red line), FEI199 (10 mg/kg; green line) or APO866 (10 mg/kg; blue line) were administered as described in the Materials and Methods section. […] Data were analyzed by the Kaplan–Meier survival analysis with log-rank test.

[3] = Pharmacokinetics in mice after intraperitoneal administration; assay type: in vivo; conditions: for Cmax / Tmax / CL/F / AUC(0-t) / half-life / Vd/F: female SCID mice, intraperitoneal, 20 mg/kg (Figure S1); for Cmax / Tmax / AUC(0-t) / half-life / Vd/F: plasma; for CL/F: dose divided by AUC0-24; for Vd/F: (CL/F)/λz, read-out: Vz/F
Experimental: Concentration measurements in mice EDTA plasma samples were performed using a Vanquish Flex ultra-high-performance liquid chromatography (UHPLC) system attached to a TSQ Quantis^TM triple quadrupole mass spectrometer (MS) (ThermoFisher Scientific, Waltham, MA, USA). The chromatographic column was a Luna Omega Polar C18 3 µm, 50 × 2.1 mm from Phenomenex (Torrance, CA, USA), kept at 40 °C in a UHPLC oven. The mobile phase was made of water and acetonitrile (ACN) with 0.1% formic acid in each. The gradient program ranged from 20 to 95% ACN in 1.5 min and the total method duration (including equilibration for the next injection) was 3 min. The flow rate and injection volume were 0.5 mL/min and 5 µL, respectively.
For the sample preparation, 90 µL of ACN was added to an aliquot of 30 µL of mouse plasma for protein precipitation. The mixture was then centrifugated at 14,000 rpm and the supernatant was directly injected in the UHPLC–MS.
Drug plasma concentrations were measured at selected time points after intraperitoneal administration in mice (sacrificed mice in triplicates for each time point). Samples were analyzed on two separate occasions for each sampling. Then, pharmacokinetic (PK) parameters were computed using standard non-compartmental calculations for geometric means of the measured concentrations using the “PKNCA R Package” (R version 4.0.2, R Development Core Team, http://www.r-project.org/ access date: 4 February 2023).
The area under the curve (AUC0-24) was calculated for the four drugs using the trapezoidal and log-trapezoidal rule when appropriate. The terminal rate constant (λz) was approximated using the slope of the terminal phase, while the half-life (T1/2) was calculated as ln(2)/λz, the apparent clearance (CL/F) as the dose divided by AUC0-24 and the apparent volume of distribution (Vz/F) as (CL/F)/λz.

[4] = system: Jurkat cells (acute lymphoblastic leukemia); assay: Cell death after 96 h of treatment (ANXN/7AAD flow cytometry), Jurkat; assay type: cell-based; conditions: Homo sapiens
Experimental: as §1, §2, §3

[5] = system: RPMI8226 cells (multiple myeloma); assay: Cell death after 96 h of treatment (ANXN/7AAD flow cytometry), RPMI8226; assay type: cell-based; conditions: Homo sapiens, RPMI-8226; RPMI8226, 96 h
Experimental: as §1, §2, §3

[6] = system: ML2, Jurkat, Namalwa and RPMI8226 cells; assay: Cell death in the four hematological cancer cell lines, statements for all lines together; assay type: cell-based, human; conditions: 96 h
Experimental: as §1, §2, §3
A dose-dependent analysis of cell death induced by NAMPT inhibitors on ML2 (A), Jurkat (B), Namalwa (C) and RPMI8226 (D) cell lines. The cells were treated with various concentrations of NAMPT inhibitors for 96 h and cell death was assessed by flow cytometry using ANXN and 7AAD staining. […]

[7] = system: ML2 cells (acute myeloid leukemia); assay: Cell death after 96 h of treatment (ANXN/7AAD flow cytometry), ML2; assay type: cell-based; conditions: Homo sapiens, ML-2; ML2, 96 h
Experimental: as §1, §2, §3

SMILES | pIC50 [1] | Inhibition of NAMPT activity (purified NAMPT) | Tumor growth [2] | Cmax [3] | Tmax [3] | CL/F [3] | pIC50 [4] | pIC50 [5] | pIC50 [7] | half-life ([3]; mouse, ip) | AUC(0-t) ([3]; mouse, ip, read-out: AUC0-24) | Vd/F ([3]; mouse, ip) | also measured
N#CN=C(NC/C=C/CCC1CCN(C(=O)c2ccco2)CC1)Nc1ccncc1 [FEI199] | 9.54 | full inhibition | did not stop tumor progression, but significantly delayed it | 12,031 ng/mL | 0.17 h | 108 mL/h | 9.60 | 9.92 | 9.68 |  |  |  | Clearance, fold higher than APO866 or JJ08 ([3]; mice, I.P.): more than 4 fold; AUC(0-t) ([3]; mouse, ip, AUC calculated from PK measurements up to 8 h, read-out: AUC0-24 (*)): 3720 ng·h/mL; pIC50 ([6]; Homo sapiens, all four cell lines, read-out: IC50 in all malignancies): > 9.52; Concentration inducing maximal cell killing ([6]; all tested cell lines): ≤ 0.5 nM
O=C(/C=C/c1cccnc1)NCCCCC1CCN(C(=O)c2ccccc2)CC1 [APO866, reference compound] | 9.24 |  |  | 28,028 ng/mL | 0.17 h | 24 mL/h | 9.33 | 9.64 | 9.39 | 3.74 h | 16400 ng·h/mL | 0.131 L | 
O=C(/C=C/c1cccnc1)NCCCCC1CCN(C(=O)c2ccco2)CC1 [JJ08, (E)-N-(4-(1-(furan-2-carbonyl)piperidin-4-yl)butyl)-3-(pyridin-3-yl)acrylamide] | 9.24 | full inhibition | completely eradicated tumor growth |  |  | 53 mL/h | 9.07 | 9.52 | 9.29 | 6.58 h | 7560 ng·h/mL | 0.502 L | Signs of toxicity (loss of body weight, lethargy, rough coat, premature death) ([2]; xenografted mice, 10 mg/kg I.P.): well tolerated; AUC0-24, fold lower than that of APO866 ([3]; mice, I.P.): approximately 2 fold; CL/F, fold higher compared to APO866 ([3]; mice, I.P.): 2 fold; Cmax ([3]; mouse, ip, read-out: Cmax): 24300 ng/mL; Tmax ([3]; mouse, ip, read-out: Tmax): 0.17 h
